Series [1] concerns the target T1, Potassium Channel hERG (human) (Homo sapiens, UniProt Q12809).
T1 construct: gene KCNH2
The experiment in a line: in vitro. Set-up: CEREP off-target panel, radioligand binding, inhibition of control specific binding. The settings on record: read-out: % Inhibition of Control Specific Binding, Mean. An excerpt:
Mass spectrometry (MS)-based chemical proteomics experiments emulated these findings (Fig. 3d).

Series [2] concerns the target T2, hormone-sensitive lipase (HSL) (Homo sapiens, UniProt Q05469).
T2 construct: gene LIPE; full-length, C-terminal FLAG-tag, expressed in HEK293T
As to the kind of experiment: gel-based competitive ABPP (FP-TAMRA) on HEK293T membranes expressing human HSL. Type of series: cell-based.

The target in series [3] is T3, hormone-sensitive lipase (HSL) (Mus musculus, UniProt P54310).
T3 construct: gene Lipe; full-length, C-terminal FLAG-tag, expressed in HEK293T; endogenous in mouse tissue proteomes
As to the kind of experiment: MS chemical proteomics on mouse tissues; gel-based competitive ABPP on recombinant mouse HSL. Type of series: cell-based.

Series [4] deals with T4, 5-HT2B(h) (agonist radioligand) (Homo sapiens, UniProt P41595).
T4 construct: gene HTR2B; agonist radioligand
The experiment in a line: biochemical. Set-up: CEREP off-target panel, radioligand binding, inhibition of control specific binding. The settings on record: read-out: % Inhibition of Control Specific Binding, Mean.

Series [5] has as its target T5, CB2(h) (agonist radioligand) (Homo sapiens, UniProt P34972).
T5 construct: gene CNR2; agonist radioligand
As to the kind of experiment: biochemical. Also on record: CEREP off-target panel, radioligand binding, inhibition of control specific binding. The settings on record: read-out: % Inhibition of Control Specific Binding, Mean.

Series [6] has as its target T6, M1(h) (antagonist radioligand) (Homo sapiens, UniProt P11229).
T6 construct: gene CHRM1; antagonist radioligand
The experiment in a line: biochemical. Also on record: CEREP off-target panel, radioligand binding, inhibition of control specific binding. The settings on record: read-out: % Inhibition of Control Specific Binding, Mean.

The target in series [7] is T7, β2(h) (antagonist radioligand) (Homo sapiens, UniProt P07550).
T7 construct: gene ADRB2; antagonist radioligand
As to the kind of experiment: biochemical. Also on record: CEREP off-target panel, radioligand binding, inhibition of control specific binding. The settings on record: read-out: % Inhibition of Control Specific Binding, Mean.

The target in series [8] is T8, 5-HT1B (h) (antagonist radioligand) (Homo sapiens, UniProt P28222).
T8 construct: gene HTR1B; antagonist radioligand
As to the kind of experiment: biochemical. Set-up: CEREP off-target panel, radioligand binding, inhibition of control specific binding. The settings on record: read-out: % Inhibition of Control Specific Binding, Mean.

Series [9] concerns the target T9, H2(h) (antagonist radioligand) (Homo sapiens, UniProt P25021).
T9 construct: gene HRH2; antagonist radioligand
The experiment in a line: biochemical. The settings on record: read-out: % Inhibition of Control Specific Binding, Mean. Set-up: CEREP off-target panel, radioligand binding, inhibition of control specific binding.

Series [10] concerns the target T10, α1A(h) (antagonist radioligand) (Homo sapiens, UniProt P35348).
T10 construct: gene ADRA1A; antagonist radioligand
The experiment in a line: biochemical. Set-up: CEREP off-target panel, radioligand binding, inhibition of control specific binding. The settings on record: read-out: % Inhibition of Control Specific Binding, Mean.

Series [11] has as its target T11, GR (h) (agonist radioligand) (Homo sapiens, UniProt P04150).
T11 construct: gene NR3C1; agonist radioligand
As to the kind of experiment: biochemical. The settings on record: read-out: % Inhibition of Control Specific Binding, Mean. Set-up: CEREP off-target panel, radioligand binding, inhibition of control specific binding.

Series [12] concerns the target T12, ETA(h) (agonist radioligand) (Homo sapiens, UniProt P25101).
T12 construct: gene EDNRA; agonist radioligand
As to the kind of experiment: biochemical. Also on record: CEREP off-target panel, radioligand binding, inhibition of control specific binding. The settings on record: read-out: % Inhibition of Control Specific Binding, Mean.

The target in series [13] is T13, N neuronal α4β2 (h) (agonist radioligand) (Homo sapiens, UniProt P17787+P43681).
T13 construct: gene CHRNB2; agonist radioligand
The experiment in a line: biochemical. The settings on record: read-out: % Inhibition of Control Specific Binding, Mean. Also on record: CEREP off-target panel, radioligand binding, inhibition of control specific binding.

The target in series [14] is T14, AR(h) (agonist radioligand) (Homo sapiens, UniProt P10275).
T14 construct: agonist radioligand
The experiment in a line: biochemical. Set-up: CEREP off-target panel, radioligand binding, inhibition of control specific binding. The settings on record: read-out: % Inhibition of Control Specific Binding, Mean.

In series [15] the target is T15, MAGL (monoacylglycerol lipase) (Mus musculus, UniProt O35678).
T15 sequence (O35678 1-303): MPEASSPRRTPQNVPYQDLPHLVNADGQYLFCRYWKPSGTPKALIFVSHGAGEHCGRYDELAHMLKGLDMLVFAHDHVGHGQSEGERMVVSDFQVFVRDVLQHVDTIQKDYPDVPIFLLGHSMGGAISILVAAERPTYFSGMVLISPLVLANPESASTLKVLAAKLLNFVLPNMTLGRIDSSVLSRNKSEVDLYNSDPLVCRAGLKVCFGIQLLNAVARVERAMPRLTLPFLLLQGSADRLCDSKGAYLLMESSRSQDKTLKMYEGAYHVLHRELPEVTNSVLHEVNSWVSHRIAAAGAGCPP
The experiment in a line: gel-based competitive ABPP (FP-TAMRA, MB064) in mouse brain membrane proteome. Type of series: biochemical. Also on record: gene Mgll; endogenous, mouse brain proteome.

Series [16] deals with T16, MAGL (monoacylglycerol lipase) (Homo sapiens, UniProt Q99685, K36A/L169S/L176S).
T16 construct: gene MGLL; tag-free hMAGL (K36A, L169S, L176S), His6-TEV tag cleaved
The experiment in a line: X-ray co-crystal structure (crystal soaking), […] Å. Type of series: binding.

For a further series, the target named is T17, 5-HT transporter (h) (Homo sapiens, UniProt P31645).
T17 construct: gene SLC6A4
As to the kind of experiment: biochemical. Set-up: CEREP off-target panel, radioligand binding, inhibition of control specific binding. The settings on record: read-out: % Inhibition of Control Specific Binding, Mean.

Data on one compound can be found in publication PMC10698032, “A monoacylglycerol lipase inhibitor showing therapeutic efficacy in mice without central side effects or dependence” (Nature Communications, 2023).

Each structure is given as a SMILES string. pIC50: −log10 of the molar value.

T13 sequence (P17787 whole entry): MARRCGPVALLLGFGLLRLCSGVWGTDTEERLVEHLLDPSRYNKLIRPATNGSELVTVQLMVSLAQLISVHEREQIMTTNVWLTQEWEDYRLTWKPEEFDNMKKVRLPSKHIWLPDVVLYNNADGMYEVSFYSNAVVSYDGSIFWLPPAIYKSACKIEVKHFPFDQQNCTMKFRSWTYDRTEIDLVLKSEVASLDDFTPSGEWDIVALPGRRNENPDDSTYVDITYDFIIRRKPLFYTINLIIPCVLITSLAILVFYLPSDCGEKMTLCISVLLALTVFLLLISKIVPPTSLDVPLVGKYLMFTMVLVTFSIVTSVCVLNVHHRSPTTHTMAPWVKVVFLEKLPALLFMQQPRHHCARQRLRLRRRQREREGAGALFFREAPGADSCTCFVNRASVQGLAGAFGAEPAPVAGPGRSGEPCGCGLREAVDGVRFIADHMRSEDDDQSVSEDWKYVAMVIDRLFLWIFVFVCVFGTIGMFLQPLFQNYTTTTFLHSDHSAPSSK
T13 sequence (P43681 whole entry): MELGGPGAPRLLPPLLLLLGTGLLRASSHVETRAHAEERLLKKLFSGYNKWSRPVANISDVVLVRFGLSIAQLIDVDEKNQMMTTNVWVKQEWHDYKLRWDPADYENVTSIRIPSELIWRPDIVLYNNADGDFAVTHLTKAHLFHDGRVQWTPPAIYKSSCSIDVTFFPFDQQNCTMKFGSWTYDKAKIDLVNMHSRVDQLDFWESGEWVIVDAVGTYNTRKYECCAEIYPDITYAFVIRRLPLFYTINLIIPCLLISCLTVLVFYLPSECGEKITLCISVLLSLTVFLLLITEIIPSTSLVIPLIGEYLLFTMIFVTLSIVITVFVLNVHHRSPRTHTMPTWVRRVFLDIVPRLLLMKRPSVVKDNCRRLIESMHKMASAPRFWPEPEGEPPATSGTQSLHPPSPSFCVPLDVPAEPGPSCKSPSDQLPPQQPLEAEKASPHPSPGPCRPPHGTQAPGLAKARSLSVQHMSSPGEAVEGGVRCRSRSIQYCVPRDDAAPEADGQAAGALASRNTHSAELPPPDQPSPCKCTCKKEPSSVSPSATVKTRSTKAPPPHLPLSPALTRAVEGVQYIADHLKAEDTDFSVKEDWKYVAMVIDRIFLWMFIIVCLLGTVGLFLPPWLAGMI
T1 sequence (Q12809 whole entry): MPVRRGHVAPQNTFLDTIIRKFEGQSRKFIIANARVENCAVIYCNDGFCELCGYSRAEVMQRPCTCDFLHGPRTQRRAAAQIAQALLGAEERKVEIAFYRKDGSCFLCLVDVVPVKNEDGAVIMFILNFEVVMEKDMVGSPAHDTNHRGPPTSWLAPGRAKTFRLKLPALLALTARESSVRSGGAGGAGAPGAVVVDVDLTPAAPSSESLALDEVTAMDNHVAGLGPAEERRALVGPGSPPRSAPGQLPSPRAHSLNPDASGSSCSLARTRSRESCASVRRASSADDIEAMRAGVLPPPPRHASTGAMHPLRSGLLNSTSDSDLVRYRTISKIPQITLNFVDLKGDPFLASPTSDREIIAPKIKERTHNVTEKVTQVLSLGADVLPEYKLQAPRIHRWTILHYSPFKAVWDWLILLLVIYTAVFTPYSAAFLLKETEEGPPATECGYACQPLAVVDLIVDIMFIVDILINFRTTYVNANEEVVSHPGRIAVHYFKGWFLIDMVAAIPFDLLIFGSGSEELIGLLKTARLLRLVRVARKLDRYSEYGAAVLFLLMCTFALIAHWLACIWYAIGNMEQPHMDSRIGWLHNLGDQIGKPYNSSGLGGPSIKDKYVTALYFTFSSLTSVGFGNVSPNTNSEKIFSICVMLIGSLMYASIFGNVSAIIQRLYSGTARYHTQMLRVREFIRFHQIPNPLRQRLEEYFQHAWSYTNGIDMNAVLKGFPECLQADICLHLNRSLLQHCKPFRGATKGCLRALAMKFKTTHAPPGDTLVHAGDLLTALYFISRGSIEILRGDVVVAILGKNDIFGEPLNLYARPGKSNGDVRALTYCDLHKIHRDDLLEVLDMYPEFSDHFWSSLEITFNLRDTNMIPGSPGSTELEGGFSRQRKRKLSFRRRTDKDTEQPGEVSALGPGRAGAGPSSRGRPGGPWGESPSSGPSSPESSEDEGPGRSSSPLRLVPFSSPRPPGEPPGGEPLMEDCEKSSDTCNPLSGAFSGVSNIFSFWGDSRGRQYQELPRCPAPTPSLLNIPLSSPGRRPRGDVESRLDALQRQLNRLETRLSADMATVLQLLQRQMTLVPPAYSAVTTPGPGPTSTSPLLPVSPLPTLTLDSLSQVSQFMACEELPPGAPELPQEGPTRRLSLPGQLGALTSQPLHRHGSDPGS
T2 sequence (Q05469 whole entry): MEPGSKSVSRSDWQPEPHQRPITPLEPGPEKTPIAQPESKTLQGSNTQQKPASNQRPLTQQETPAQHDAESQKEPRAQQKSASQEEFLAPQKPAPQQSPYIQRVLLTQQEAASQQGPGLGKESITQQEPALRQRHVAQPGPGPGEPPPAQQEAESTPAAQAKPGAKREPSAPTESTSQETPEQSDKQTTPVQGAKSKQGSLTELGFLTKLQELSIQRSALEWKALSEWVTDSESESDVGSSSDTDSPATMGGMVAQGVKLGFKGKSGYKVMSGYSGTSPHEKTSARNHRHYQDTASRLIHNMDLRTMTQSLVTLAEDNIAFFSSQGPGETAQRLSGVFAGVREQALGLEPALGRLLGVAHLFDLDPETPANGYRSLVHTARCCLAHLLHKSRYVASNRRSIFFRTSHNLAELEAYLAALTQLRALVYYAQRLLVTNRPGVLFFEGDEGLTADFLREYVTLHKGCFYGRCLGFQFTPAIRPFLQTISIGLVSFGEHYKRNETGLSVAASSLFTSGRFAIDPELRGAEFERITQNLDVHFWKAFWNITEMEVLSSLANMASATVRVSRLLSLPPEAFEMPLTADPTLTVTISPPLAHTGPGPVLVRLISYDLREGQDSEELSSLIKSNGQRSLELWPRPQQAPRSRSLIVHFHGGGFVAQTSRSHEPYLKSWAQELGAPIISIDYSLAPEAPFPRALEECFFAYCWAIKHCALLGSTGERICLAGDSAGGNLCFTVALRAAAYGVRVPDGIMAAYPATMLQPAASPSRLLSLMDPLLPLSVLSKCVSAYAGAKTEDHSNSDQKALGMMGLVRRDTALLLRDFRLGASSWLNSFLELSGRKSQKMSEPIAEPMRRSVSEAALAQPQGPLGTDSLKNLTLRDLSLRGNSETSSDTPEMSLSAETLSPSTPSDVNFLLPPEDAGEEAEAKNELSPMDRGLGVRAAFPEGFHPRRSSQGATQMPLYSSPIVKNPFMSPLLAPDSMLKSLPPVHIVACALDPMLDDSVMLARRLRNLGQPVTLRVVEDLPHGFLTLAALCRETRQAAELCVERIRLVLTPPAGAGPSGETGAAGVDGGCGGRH
T17 sequence (P31645 whole entry): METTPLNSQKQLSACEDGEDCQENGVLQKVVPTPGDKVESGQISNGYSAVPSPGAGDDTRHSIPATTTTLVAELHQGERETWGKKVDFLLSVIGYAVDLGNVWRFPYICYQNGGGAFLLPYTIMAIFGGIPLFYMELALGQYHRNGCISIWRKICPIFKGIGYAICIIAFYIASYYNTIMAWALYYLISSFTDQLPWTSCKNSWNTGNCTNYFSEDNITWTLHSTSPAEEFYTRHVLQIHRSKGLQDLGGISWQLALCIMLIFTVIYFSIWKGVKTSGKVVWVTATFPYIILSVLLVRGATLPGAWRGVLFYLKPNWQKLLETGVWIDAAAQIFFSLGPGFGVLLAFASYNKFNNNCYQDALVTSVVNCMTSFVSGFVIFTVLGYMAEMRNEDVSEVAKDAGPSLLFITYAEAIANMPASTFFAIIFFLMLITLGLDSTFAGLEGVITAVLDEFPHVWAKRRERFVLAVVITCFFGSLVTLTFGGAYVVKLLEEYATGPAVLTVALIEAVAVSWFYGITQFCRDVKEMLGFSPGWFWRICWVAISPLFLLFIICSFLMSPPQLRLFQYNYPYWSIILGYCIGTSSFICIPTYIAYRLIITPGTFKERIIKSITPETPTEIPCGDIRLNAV
T9 sequence (P25021 whole entry): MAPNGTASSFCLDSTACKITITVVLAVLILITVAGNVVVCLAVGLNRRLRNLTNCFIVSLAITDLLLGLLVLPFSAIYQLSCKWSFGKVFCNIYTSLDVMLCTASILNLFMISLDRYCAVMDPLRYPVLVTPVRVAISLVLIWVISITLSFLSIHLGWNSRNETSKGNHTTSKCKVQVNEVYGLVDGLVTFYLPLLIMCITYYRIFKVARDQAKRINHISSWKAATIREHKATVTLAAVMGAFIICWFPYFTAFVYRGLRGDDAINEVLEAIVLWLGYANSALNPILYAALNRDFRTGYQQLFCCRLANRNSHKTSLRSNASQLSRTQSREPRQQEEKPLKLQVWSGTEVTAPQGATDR
T5 sequence (P34972 whole entry): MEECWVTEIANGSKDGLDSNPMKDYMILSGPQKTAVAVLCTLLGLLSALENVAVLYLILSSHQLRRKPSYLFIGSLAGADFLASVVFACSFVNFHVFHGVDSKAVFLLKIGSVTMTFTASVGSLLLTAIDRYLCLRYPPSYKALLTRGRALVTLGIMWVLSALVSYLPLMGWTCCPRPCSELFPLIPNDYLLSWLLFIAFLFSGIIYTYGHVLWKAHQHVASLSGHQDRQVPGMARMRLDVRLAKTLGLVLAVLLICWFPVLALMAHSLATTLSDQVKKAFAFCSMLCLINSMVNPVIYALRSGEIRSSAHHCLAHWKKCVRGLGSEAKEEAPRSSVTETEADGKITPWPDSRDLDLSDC
T16 sequence (Q99685 whole entry K36A/L169S/L176S): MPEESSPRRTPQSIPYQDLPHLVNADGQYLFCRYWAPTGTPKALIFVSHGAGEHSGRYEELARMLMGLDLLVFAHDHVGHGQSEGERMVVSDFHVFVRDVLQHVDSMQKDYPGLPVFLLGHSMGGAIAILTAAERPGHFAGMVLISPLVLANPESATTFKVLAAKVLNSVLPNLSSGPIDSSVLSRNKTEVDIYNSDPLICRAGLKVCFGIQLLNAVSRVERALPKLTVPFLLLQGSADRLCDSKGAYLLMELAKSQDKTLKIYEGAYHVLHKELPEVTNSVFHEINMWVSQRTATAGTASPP

With `CCC(F)(F)C(=O)C[S+]([O-])c1ccc(C(=O)N2CCN(c3cccc(Cl)c3)[C@@H](C)[C@@H]2C)cc1Cl` (mixture of isomers) [compound 3, LEI-515], the inhibition at 10 µM was 5.8% in series [1]; 27.6% in series [4]; -11.9% in series [5]; -29.5% in [6]; 26.8% in series [7]; 24.2% in series [8]. Further, the inhibition at 10 µM in series [9] was -26%; in series [10], 3.5%; in series [11], 30.2%; in [12], -8%; in series [13], -10.5%; in [14], -7%. Further, the inhibition at 10 µM at 5-HT transporter (h) turned out to be 4.2%. Moreover, the “gel-based competitive ABPP (FP-TAMRA) on HEK293T membranes expressing human HSL” value in series [2] is on record as “confirmed by gel-based ABPP experiments using membrane fractions of HEK293T cells expressing recombinant human or mouse HSL”. Further, in series [3], the “MS chemical proteomics on mouse tissues; gel-based competitive ABPP on recombina” value is “hormone-sensitive lipase (HSL) was identified as main off-target in lung, liver, and brain”. The compound also had a pIC50 in series [15] of 7.60. In series [16], the “X-ray co-crystal structure (crystal soaking), 1.55 Å” value is reported as “LEI-515 was covalently attached to the catalytic Ser122 residue through its electrophilic carbonyl group as a deprotonated hemiketal”.
